System: P. aeruginosa C0307
Assay: Checkerboard assay of 83 with kanamycin A
Format: cell-based
Conditions: for checkerboard well reading (growth): Supp. Figure 3 B

SMILES: Clc1cnc2[nH]ccc2c1-c1ccn[nH]1 [Compound 83]
- checkerboard well reading (growth) (83 1 µg.mL-1, kanamycin A 128 µg.mL-1): 0.042
- checkerboard well reading (growth) (83 2 µg.mL-1, kanamycin A 0 µg.mL-1): 1.144
- checkerboard well reading (growth) (83 2 µg.mL-1, kanamycin A 2 µg.mL-1): 1.163
- checkerboard well reading (growth) (83 2 µg.mL-1, kanamycin A 4 µg.mL-1): 1.143
- checkerboard well reading (growth) (83 2 µg.mL-1, kanamycin A 8 µg.mL-1): 1.140
- checkerboard well reading (growth) (83 2 µg.mL-1, kanamycin A 16 µg.mL-1): 1.101
- checkerboard well reading (growth) (83 2 µg.mL-1, kanamycin A 32 µg.mL-1): 1.112
- checkerboard well reading (growth) (83 2 µg.mL-1, kanamycin A 64 µg.mL-1): 0.172
- checkerboard well reading (growth) (83 2 µg.mL-1, kanamycin A 128 µg.mL-1): 0.038
- checkerboard well reading (growth) (83 4 µg.mL-1, kanamycin A 0 µg.mL-1): 1.132
- checkerboard well reading (growth) (83 4 µg.mL-1, kanamycin A 2 µg.mL-1): 1.139
- checkerboard well reading (growth) (83 4 µg.mL-1, kanamycin A 4 µg.mL-1): 1.161
- checkerboard well reading (growth) (83 4 µg.mL-1, kanamycin A 8 µg.mL-1): 1.123
- checkerboard well reading (growth) (83 4 µg.mL-1, kanamycin A 16 µg.mL-1): 1.163
- checkerboard well reading (growth) (83 4 µg.mL-1, kanamycin A 32 µg.mL-1): 1.149
- checkerboard well reading (growth) (83 4 µg.mL-1, kanamycin A 64 µg.mL-1): 0.250
- checkerboard well reading (growth) (83 4 µg.mL-1, kanamycin A 128 µg.mL-1): 0.041
- checkerboard well reading (growth) (83 8 µg.mL-1, kanamycin A 0 µg.mL-1): 1.480
- checkerboard well reading (growth) (83 8 µg.mL-1, kanamycin A 2 µg.mL-1): 1.120
- checkerboard well reading (growth) (83 8 µg.mL-1, kanamycin A 4 µg.mL-1): 1.107
- checkerboard well reading (growth) (83 8 µg.mL-1, kanamycin A 8 µg.mL-1): 1.138
- checkerboard well reading (growth) (83 8 µg.mL-1, kanamycin A 16 µg.mL-1): 1.202
- checkerboard well reading (growth) (83 8 µg.mL-1, kanamycin A 32 µg.mL-1): 1.141
- checkerboard well reading (growth) (83 8 µg.mL-1, kanamycin A 64 µg.mL-1): 0.170
- checkerboard well reading (growth) (83 8 µg.mL-1, kanamycin A 128 µg.mL-1): 0.040
- checkerboard well reading (growth) (83 16 µg.mL-1, kanamycin A 0 µg.mL-1): 1.350
- checkerboard well reading (growth) (83 16 µg.mL-1, kanamycin A 2 µg.mL-1): 1.145
- checkerboard well reading (growth) (83 16 µg.mL-1, kanamycin A 4 µg.mL-1): 1.177
- checkerboard well reading (growth) (83 16 µg.mL-1, kanamycin A 8 µg.mL-1): 1.181
- checkerboard well reading (growth) (83 16 µg.mL-1, kanamycin A 16 µg.mL-1): 1.121
- checkerboard well reading (growth) (83 16 µg.mL-1, kanamycin A 32 µg.mL-1): 1.161
- checkerboard well reading (growth) (83 16 µg.mL-1, kanamycin A 64 µg.mL-1): 0.077
- checkerboard well reading (growth) (83 16 µg.mL-1, kanamycin A 128 µg.mL-1): 0.041
- checkerboard well reading (growth) (83 32 µg.mL-1, kanamycin A 0 µg.mL-1): 1.542
- checkerboard well reading (growth) (83 32 µg.mL-1, kanamycin A 2 µg.mL-1): 1.314
- checkerboard well reading (growth) (83 32 µg.mL-1, kanamycin A 4 µg.mL-1): 1.373
- checkerboard well reading (growth) (83 32 µg.mL-1, kanamycin A 8 µg.mL-1): 1.519
- checkerboard well reading (growth) (83 32 µg.mL-1, kanamycin A 16 µg.mL-1): 1.301
- checkerboard well reading (growth) (83 32 µg.mL-1, kanamycin A 32 µg.mL-1): 1.153
- checkerboard well reading (growth) (83 32 µg.mL-1, kanamycin A 64 µg.mL-1): 0.041
- checkerboard well reading (growth) (83 32 µg.mL-1, kanamycin A 128 µg.mL-1): 0.042
- checkerboard well reading (growth) (83 64 µg.mL-1, kanamycin A 0 µg.mL-1): 1.274
- checkerboard well reading (growth) (83 64 µg.mL-1, kanamycin A 2 µg.mL-1): 1.335
- checkerboard well reading (growth) (83 64 µg.mL-1, kanamycin A 4 µg.mL-1): 1.176
- checkerboard well reading (growth) (83 64 µg.mL-1, kanamycin A 8 µg.mL-1): 1.404
- checkerboard well reading (growth) (83 64 µg.mL-1, kanamycin A 16 µg.mL-1): 1.087
- checkerboard well reading (growth) (83 64 µg.mL-1, kanamycin A 32 µg.mL-1): 0.939
- checkerboard well reading (growth) (83 64 µg.mL-1, kanamycin A 64 µg.mL-1): 0.044
- checkerboard well reading (growth) (83 64 µg.mL-1, kanamycin A 128 µg.mL-1): 0.044
- checkerboard well reading (growth) (83 128 µg.mL-1, kanamycin A 0 µg.mL-1): 1.377
- checkerboard well reading (growth) (83 128 µg.mL-1, kanamycin A 2 µg.mL-1): 1.277
- checkerboard well reading (growth) (83 128 µg.mL-1, kanamycin A 4 µg.mL-1): 1.324
- checkerboard well reading (growth) (83 128 µg.mL-1, kanamycin A 8 µg.mL-1): 1.318
- checkerboard well reading (growth) (83 128 µg.mL-1, kanamycin A 16 µg.mL-1): 0.963
- checkerboard well reading (growth) (83 128 µg.mL-1, kanamycin A 32 µg.mL-1): 0.366
- checkerboard well reading (growth) (83 128 µg.mL-1, kanamycin A 64 µg.mL-1): 0.038
- checkerboard well reading (growth) (83 128 µg.mL-1, kanamycin A 128 µg.mL-1): 0.043
- Impact of 83 alone on bacterial growth (absence of antibiotics, 83 from 0 to 128 µg mL^−1 (585 µM)): no impact on bacterial growth
